Test results from patent US20060281763A1, “Carboxamide inhibitors of TGFbeta” (priority 2005, published 2006).

biological target: T1, TGFβ R1 (Homo sapiens, UniProt P36897); test: TGFβ R1 autophosphorylation protocol (33P-ATP, phosphocellulose filter plate); assay type: biochemical; details: 10 uM ATP, 170 nM TGFβ R1, room temperature 20 minutes, read-out: IC50 for Kinase Inhibition
T1 sequence (P36897 34-503): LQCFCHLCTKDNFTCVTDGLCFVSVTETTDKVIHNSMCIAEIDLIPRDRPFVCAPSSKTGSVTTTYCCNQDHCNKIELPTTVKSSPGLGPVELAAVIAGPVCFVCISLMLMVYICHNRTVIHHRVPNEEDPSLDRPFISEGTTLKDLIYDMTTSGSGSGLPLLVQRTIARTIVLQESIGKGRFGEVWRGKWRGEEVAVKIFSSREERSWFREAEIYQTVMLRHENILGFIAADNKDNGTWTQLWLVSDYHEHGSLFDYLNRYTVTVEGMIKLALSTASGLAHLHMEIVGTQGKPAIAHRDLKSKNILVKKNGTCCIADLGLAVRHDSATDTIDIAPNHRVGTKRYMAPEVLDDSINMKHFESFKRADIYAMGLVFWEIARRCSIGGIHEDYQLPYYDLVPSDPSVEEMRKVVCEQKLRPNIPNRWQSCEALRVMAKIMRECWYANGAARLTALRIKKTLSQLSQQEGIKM
Method in brief: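 Radiometric autophosphorylation: 170 nM enzyme with compound (≤1% DMSO), 10 uM ATP plus γ-33P-ATP, […] in 20 mM MOPS pH 7, 20 min at room temperature. Reaction stopped on phosphocellulose filter, washed with H3PO4 and ethanol, counted by scintillation.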

IC50 [nM]	SMILES
5	CC(C)c1cnc(-c2cc(Cl)ccc2F)nc1Nc1ccncc1C(=O)NC1CC1CO (stereo not drawn) [Compound 179, 4-[2-(5-Chloro-2-fluoro-phenyl)-5-isopropyl-pyrimidin-4-ylamino]-N-(2-hydroxymethyl-cyclopropyl)-nicotinamide]
5	CC(C)c1cnc(-c2cc(Cl)ccc2F)nc1Nc1ccncc1C(=O)NCCCN1CCC[C@@H]1C(=O)N1CCCC1 [Compound 180]
6	CC(C)c1cnc(-c2cc(Cl)ccc2F)nc1Nc1ccncc1C(=O)NCCCN1CCC[C@@H]1C(=O)N(C)C [Compound 181, 4-[2-(5-Chloro-2-fluoro-phenyl)-5-isopropyl-pyrimidin-4-ylamino]-N-[3-(2-dimethylcarbamoyl-pyrrolidin-1-yl)-propyl]-nicotinamide]
11	CNC(=O)[C@H]1CCCN1CCCNC(=O)c1cnccc1Nc1nc(-c2cc(Cl)ccc2F)ncc1C(C)C [Compound 182, 4-[2-(5-Chloro-2-fluoro-phenyl)-5-isopropyl-pyrimidin-4-ylamino]-N-[3-(2-methylcarbamoyl-pyrrolidin-1-yl)-propyl]-nicotinamide]
21	CC(C)c1cnc(-c2cc(Cl)ccc2F)nc1Nc1ccncc1C(=O)NCCCN1CCCC[C@H]1C(=O)N1CCCC1 [Compound 183, 4-[2-(5-Chloro-2-fluoro-phenyl)-5-isopropyl-pyrimidin-4-ylamino]-N-{3-[2-(pyrrolidine-1-carbonyl)-piperidin-1-yl]-propyl}-nicotinamide]
12	CNC(=O)[C@@H]1CCCCN1CCCNC(=O)c1cnccc1Nc1nc(-c2cc(Cl)ccc2F)ncc1C(C)C [Compound 184, 4-[2-(5-Chloro-2-fluoro-phenyl)-5-isopropyl-pyrimidin-4-ylamino]-N-[3-(2-methylcarbamoyl-piperidin-1-yl)-propyl}-nicotinamide]
9	COc1cnc(-c2cc(Cl)ccc2F)nc1Nc1ccncc1C(=O)NCCNCCOC1O[C@@H](CO)[C@H](O)[C@@H](O)[C@@H]1O (stereo partly drawn) [Compound 185]
11	COCCCNC(=O)c1cnccc1Nc1nc(-c2cc(Cl)ccc2F)ncc1C(C)C [Compound 186, 4-[2-(5-Chloro-2-fluoro-phenyl)-5-isopropyl-pyrimidin-4-ylamino]-N-(3-methoxy-propyl)-nicotinamide]
12	CCOCCCNC(=O)c1cnccc1Nc1nc(-c2cc(Cl)ccc2F)ncc1C(C)C [Compound 187, 4-[2-(5-Chloro-2-fluoro-phenyl)-5-isopropyl-pyrimidin-4-ylamino]-N-(3-ethoxy-propyl)-nicotinamide]
5	CC(C)c1cnc(-c2cc(Cl)ccc2F)nc1Nc1ccncc1C(=O)NCCCO [Compound 188, 4-[2-(5-Chloro-2-fluoro-phenyl)-5-isopropyl-pyrimidin-4-ylamino]-N-(3-hydroxy-propyl)-nicotinamide]
74	CC(C)OCCCNC(=O)c1cnccc1Nc1nc(-c2cc(Cl)ccc2F)ncc1C(C)C [Compound 189, 4-[2-(5-Chloro-2-fluoro-phenyl)-5-isopropyl-pyrimidin-4-ylamino]-N-(3-isopropoxy-propyl)-nicotinamide]
9	CC(C)c1cnc(-c2cc(Cl)ccc2F)nc1Nc1ccncc1C(=O)NCCCN1CCC[C@H]1C(=O)N1CCCC1 [Compound 190, 4-[2-(5-Chloro-2-fluoro-phenyl)-5-isopropyl-pyrimidin-4-ylamino]-N-{3-[2-(pyrrolidine-1-carbonyl)-pyrrolidine-1-yl]-propyl}-nicotinamide]
13	CC(C)c1cnc(-c2cc(Cl)ccc2F)nc1Nc1ccncc1C(=O)NCCCN1C[C@H](O)C[C@H]1C(=O)N1CCCC1 [Compound 191, 4-[2-(5-Chloro-2-fluoro-phenyl)-5-isopropyl-pyrimidin-4-ylamino]-N-{3-[4-hydroxy-2-(pyrrolidine-1-carbonyl)-pyrrolidin-1-yl]-propyl}-nicotinamide]
122	CCOP(=O)(OCC)OC(C)(C)CNC(=O)c1cnccc1Nc1nc(-c2cc(Cl)ccc2F)ncc1C(C)C [Compound 192]
27	CC(C)c1cnc(-c2cc(Cl)ccc2F)nc1Nc1ccncc1C(=O)NC(CO)CO [Compound 193, 4-[2-(5-Chloro-2-fluoro-phenyl)-5-isopropyl-pyrimidin-4-ylamino]-N-(2-hydroxy-1-hydroxymethyl-ethyl)-nicotinamide]
41	CC(C)c1cnc(-c2cc(Cl)ccc2F)nc1Nc1ccncc1C(=O)NCCC(=O)N1CCC[C@H]1C(=O)N(C)C [Compound 194, 4-[2-(5-Chloro-2-fluoro-phenyl)-5-isopropyl-pyrimidin-4-ylamino]-N-[3-(2-dimethyl-carbamoyl-pyrrolidin-1-yl)-3-oxo-propyl]-nicotinamide]
424	COCC(COC)NC(=O)c1cnccc1Nc1nc(-c2cc(Cl)ccc2F)ncc1C(C)C [Compound 195, 4-[2-(5-Chloro-2-fluoro-phenyl)-5-isopropyl-pyrimidin-4-ylamino]-N-(2-methoxy-1-methoxymethyl-ethyl)-nicotinamide]
245	CC(C)c1cnc(-c2cc(Cl)ccc2F)nc1Nc1cc[n+]([O-])cc1C(=O)NCC(C)(C)O [Compound 196, 4-[2-(5-Chloro-2-fluoro-phenyl)-5-isopropyl-pyrimidin-4-ylamino]-N-(2-hydroxy-2-methyl-propyl)-1-oxy-nicotinamide]
675	COc1cnc(-c2cc(Cl)ccc2F)nc1Nc1cc[n+]([O-])cc1C(=O)NC[C@H](C)O [Compound 197, 4-[2-(5-Chloro-2-fluoro-phenyl)-5-methoxy-pyrimidin-4-ylamino]-N-(2-hydroxy-propyl)-1-oxy-nicotinamide]
148	CC(O)CNC(=O)c1c[n+]([O-])ccc1Nc1nc(-c2cc(Cl)ccc2F)ncc1C(C)C (stereo not drawn) [Compound 198, 4-[2-(5-Chloro-2-fluoro-phenyl)-5-isopropyl-pyrimidin-4-ylamino]-N-(2-hydroxy-propyl)-1-oxy-nicotinamide]
54	COc1cnc(-c2cc(Cl)ccc2F)nc1Nc1ccncc1C(=O)NCCCCCNC(=O)CCCC[C@H]1SC[C@@H]2NC(=O)N[C@@H]21 [Compound 202, 4-[2-(5-Chloro-2-fluoro-phenyl)-5-methoxy-pyrimidin-4-ylamino]-N-{5-[5-(2-oxo-hexahydro-thieno[3,4-d]imidazol-6-yl)-pentanoylamino]-pentyl]-nicotinamide]
176	COc1cnc(-c2cc(Cl)ccc2F)nc1Nc1ccncc1C(=O)N1CCOCC1 [Compound 203, {4-[2-(5-Chloro-2-fluoro-phenyl)-5-methoxy-pyrimidin-4-ylamino]-pyridin-3-yl}-morpholin-4-yl-methanone]
25	CC(C)c1cnc(-c2cc(Cl)ccc2F)nc1Nc1ccncc1C(=O)NC[C@H](C)OC(=O)[C@H](C)N [Compound 204, 2-Amino-propionic acid 2-({4-[2-(5-chloro-2-fluoro-phenyl)-5-isopropyl-pyrimidin-4-ylamino]-pyridine-3-carbonyl}-amino)-1-methyl-ethyl ester]
10	CC(C)c1cnc(-c2cc(Cl)ccc2F)nc1Nc1ccncc1C(=O)NC[C@H](C)OC(=O)[C@@H](C)N [Compound 205, 2-Amino-propionic acid 2-({4-[2-(5-chloro-2-fluoro-phenyl)-5-isopropyl-pyrimidin-4-ylamino]-pyridine-3-carbonyl}-amino)-1-methyl-ethyl ester]
72	CC(C)c1cnc(-c2cc(Cl)ccc2F)nc1Nc1ccncc1C(=O)NC[C@H](C)OC(=O)[C@@H](N)C(C)C [Compound 206, 2-Amino-3-methyl-butyric acid 2-({4-[2-(5-chloro-2-fluoro-phenyl)-5-isopropyl-pyrimidin-4-ylamino]-pyridine-3-carbonyl}-amino)-1-methyl-ethyl ester]
17	CC(C)c1cnc(-c2cc(Cl)ccc2F)nc1Nc1ccncc1C(=O)NC[C@H](C)OC(=O)[C@H](N)C(C)C [Compound 207, 2-Amino-3-methyl-butyric acid 2-({4-[2-(5-chloro-2-fluoro-phenyl)-5-isopropyl-pyrimidin-4-ylamino]-pyridine-3-carbonyl}-amino)-1-methyl-ethyl-ester]
1620	CC(C)c1cnc(-c2cc(Cl)ccc2F)nc1Nc1ccncc1C(=O)N1CCN(C)CC1 [Compound 208, {4-[2-(5-Chloro-2-fluoro-phenyl)-5-isopropyl-pyrimidin-4-ylamino]-pyridin-3-yl}-(4-methyl-piperazin-1-yl)-methanone]
68	CC(C)c1cnc(-c2cc(Cl)ccc2F)nc1Nc1ccncc1C(=O)N1CC[C@H](N)C1 [Compound 209, (3-Amino-pyrrolidin-1-yl)-{4-[2-(5-chloro-2-fluoro-phenyl)-5-isopropyl-pyrimidin-4-ylamino]-pyridin-3-yl}-methanone]
121	CC(C)c1cnc(-c2cc(Cl)ccc2F)nc1Nc1ccncc1C(=O)N1CC[C@@H](F)C1 [Compound 210, {4-[2-(5-Chloro-2-fluoro-phenyl)-5-isopropyl-pyrimidin-4-ylamino]-pyridin-3-yl}-(3-fluoro-pyrrolidin-1-yl)-methanone]
258	COc1cnc(-c2cc(Cl)ccc2F)nc1Nc1ccncc1C(=O)N1CC[C@H](N)C1 [Compound 211, (3-Amino-pyrrolidin-1-yl)-{4-[2-(5-chloro-2-fluoro-phenyl)-5-methoxy-pyrimidin-4-ylamino]-pyridin-3-yl)-methanone]
